Assay type in all cases: cell-based
In one test the test system is drug-resistant bacteria. Description: Antibacterial activity test, summary over all experimental strains. To be noted: summary of FIG. 1-6 and Table 1. The source says:
(§1) The minimal inhibitory concentration (MIC) of the compounds as determined by microbroth dilution method with gentamicin, cefazolin sodium and ceftriaxone sodium as positive control.
(§2) The experimental strains included methicillin-resistant Gram-positive bacteria: methicillin-resistant Staphylococcus aureus MRSA 18-222, 18-575; multiple drug-resistant […] bacteria: vancomycin-resistant enterococci VRE 18-80,18-94, multidrug-resistant Pseudomonas aeruginosa MDR-PA 18-1774,18-202, carbapenem-resistant Acinetobacter baumannii CR-AB 18-183,18-560. All the experimental strains were donated by Huashan Hospital affiliated to Fudan University (Institute of antibiotics, Fudan University) and used after routine identification.
(§3) Preparation of MHB medium: 20.0 g MHB medium was added to 1 L distilled water, boiled until completely dissolved, packed in conical bottles and sterilized at 121° C. for 15 min.
The experimental strain was cultured to the logarithmic growth phase: under aseptic condition, the experimental strain was inoculated into 100 mL MHB medium and incubated in a constant temperature and humidity incubator at 37° C. for 20-22 hours. […]

The subject of test [1] is vancomycin-resistant enterococci VRE 18-80,18-94. Description: MIC by microbroth dilution method, VRE strains. The following applies: 37° C., 20-22 hours.
Text: as §1, §2, §3
(§4) The experimental strain was cultured to the logarithmic growth phase: under aseptic condition, the experimental strain was inoculated into 100 mL MHB medium and incubated in a constant temperature and humidity incubator at 37° C. for 20-22 hours.
(§5) Preparation of storage solution: weigh the sample to be tested, dissolve it with 1% DMSO solution, prepare a storage solution with a concentration of 2560 μg/mL, weigh a positive reference substance, dissolve it with aseptic distilled water, and configure a storage solution with a concentration of 2560 μg/mL.
(§6) Preparation of bacterial suspension: under aseptic condition, the experimental strains cultured to logarithmic growth phase were adjusted to 0.5 MCF turbidity standard with MHB medium and diluted according to 1:10, and the bacterial suspension with concentration of 10^6 CFU/mL was prepared for standby.
(§7) Dilution of storage solution and inoculation of experimental strain: under aseptic condition, the storage solution was diluted to 256 μg/mL solution. Take a sterile 96-well plate, add 200 μL MHB medium to the 12th well, and add 100 μL MHB medium to each well. Add 100 μL of positive control solution to the first well, mix well, and suck 100 μL from it and discard. Add 100 μL of the compound sample solution to the second well, mix well, and then pipette 100 μL to the third well. After mixing, pipette 100 μL to the fourth well, and dilute to the 11th well in this way. Finally, 100 μL was pipetted from the 11th well and discarded. The 12th hole was the growth control without drugs. So far, the concentration of the positive reference substance is 128 μg/mL, the concentrations of the sample solution are 128, […], 8, 4, 2, 1, 0.5, 0.25 μg/mL respectively. Then, 10μL of the prepared bacterial suspension is added to each well, so that the final concentration of the bacterial liquid in each well is 5×10^5 CFU/mL.
(§8) Incubation: Cover the 96-well plate inoculated with the experimental strains, and incubate in a constant temperature and humidity box at 37° C. for 20-22 hours.
In general terms: In broth dilution the organism is exposed to a series of concentrations in liquid medium.

The subject of test [2] is methicillin-resistant Staphylococcus aureus MRSA 18-222, 18-575. Description: MIC by microbroth dilution method, MRSA strains. The following applies: for Minimum bacteriostatic concentration: 37° C., 20-22 hours.
Text: as §1, §2, §3, §4, §5, §6, §7, §8

The subject of test [3] is multidrug-resistant Pseudomonas aeruginosa MDR-PA 18-1774,18-202. Description: MIC by microbroth dilution method, MDR-PA strains. The following applies: 37° C., 20-22 hours.
Text: as §1, §2, §3, §4, §5, §6, §7, §8

Test [4] has as its system carbapenem-resistant Acinetobacter baumannii CR-AB 18-183,18-560. Description: MIC by microbroth dilution method, CR-AB strains. The following applies: 37° C., 20-22 hours.
Text: as §1, §2, §3, §4, §5, §6, §7, §8

This is an account of results in patent US10717699B1, “Crotonyl alcohol cassic acid ester with antibacterial activity and a method of preparing the same” (SOUTHWEST UNIVERSITY, priority 2020, dated 2020).

In brackets after ≈: the same amount, converted by molar mass. Where only a bound is given, the exact number is not on record here.

Regarding `O=C(O)c1cc(O)c2c(c1)C(=O)c1cccc(O)c1C2=O` [Cassic acid], the “inhibitory effect on drug-resistant bacteria” value in the test with drug-resistant bacteria was “no inhibitory effect”. Further, the Minimum bacteriostatic concentration in test [1] (strain VRE 18-80), in test [1] (strain VRE 18-94), in test [2] (strain MRSA 18-222), in test [2] (strain MRSA 18-575), in test [3] (strain MDR-PA 18-174) and in test [3] (strain MDR-PA 18-202) was over 128 µg/mL in each case. Further, the Minimum bacteriostatic concentration in test [4] (strain CR-AB 18-183) and in test [4] (strain CR-AB 18-560) was over 128 µg/mL in each case.
Turning to `Cc1nnc(SCC2=C(C(=O)O)N3C(=O)[C@@H](NC(=O)Cn4cnnn4)[C@H]3SC2)s1` [Cefazolin sodium, cefazolin sodium], the Minimum bacteriostatic concentration in test [1] (strain VRE 18-80) is 32 µg/mL; in test [1] (strain VRE 18-94), over 128 µg/mL; in test [2] (strain MRSA 18-222), over 128 µg/mL; in test [2] (strain MRSA 18-575) it was over 128 µg/mL; in test [3] (strain MDR-PA 18-174), 8 µg/mL; in test [3] (strain MDR-PA 18-202), 128 µg/mL. Also, the Minimum bacteriostatic concentration in test [4] (strain CR-AB 18-183) and in test [4] (strain CR-AB 18-560) was over 128 µg/mL throughout.
Turning to `CO/N=C(\C(=O)N[C@@H]1C(=O)N2C(C(=O)O)=C(CSc3nc(=O)c(=O)[nH]n3C)CS[C@H]12)c1csc(N)n1` [Ceftriaxone sodium, ceftriaxone sodium], the Minimum bacteriostatic concentration in test [1] (strain VRE 18-80) is 8 µg/mL; in test [1] (strain VRE 18-94), over 128 µg/mL; in test [2] (strain MRSA 18-222) it was over 128 µg/mL; in test [2] (strain MRSA 18-575) it was over 128 µg/mL; in test [3] (strain MDR-PA 18-174) it was 128 µg/mL; in test [3] (strain MDR-PA 18-202) it was 16 µg/mL. Also, the Minimum bacteriostatic concentration in test [4] (strain CR-AB 18-183) and in test [4] (strain CR-AB 18-560) was over 128 µg/mL in each case.
As a reminder, the MIC is the lowest concentration found to suppress growth. Low readings indicate inhibition by little substance, high ones a need for much substance. As to `C/C=C/COC(=O)c1cc(O)c2c(c1)C(=O)c1cccc(O)c1C2=O` [Crotonyl alcohol cassic acid ester, (E)-but-2-en-1-yl 4,5-dihydroxy-9,10-dioxo-9,10-dihydroanthracene-2-carboxylate], the Minimum bacteriostatic concentration in test [1] (strain VRE 18-80) is over 128 µg/mL; in test [1] (strain VRE 18-94), over 128 µg/mL; in test [2] (strain MRSA 18-222) it was 4 µg/mL; in test [2] (strain MRSA 18-575), 4 µg/mL; in test [3] (strain MDR-PA 18-174), over 128 µg/mL; in test [3] (strain MDR-PA 18-202), over 128 µg/mL. For the same compound, the Minimum bacteriostatic concentration in test [4] (strain CR-AB 18-183) and in test [4] (strain CR-AB 18-560) was over 128 µg/mL throughout. The same compound gave an MIC in test [2] (Staphylococcus aureus, drug-resistant Gram-positive bacteria MRSA, strain not given) of 4 µg/mL (≈ 11.8 µM).
Take `CC=CCO` [Crotonyl alcohol, 2-butenol]: in the test with drug-resistant bacteria, the “inhibitory effect on drug-resistant bacteria” value is reported as “no inhibitory effect”. For the same compound, the Minimum bacteriostatic concentration in test [1] (strain VRE 18-80), in test [1] (strain VRE 18-94), in test [2] (strain MRSA 18-222), in test [2] (strain MRSA 18-575), in test [3] (strain MDR-PA 18-174) and in test [3] (strain MDR-PA 18-202) was over 128 µg/mL throughout. In addition, the Minimum bacteriostatic concentration in test [4] (strain CR-AB 18-183) and in test [4] (strain CR-AB 18-560) was over 128 µg/mL throughout.
Take gentamicin: the Minimum bacteriostatic concentration in test [1] (strain VRE 18-80) was 0.0625 µg/mL; in test [1] (strain VRE 18-94) it was over 128 µg/mL; in test [2] (strain MRSA 18-222) it was 128 µg/mL; in test [2] (strain MRSA 18-575), 2 µg/mL; in test [3] (strain MDR-PA 18-174) it was 0.0625 µg/mL; in test [3] (strain MDR-PA 18-202), 0.0625 µg/mL. Also, the Minimum bacteriostatic concentration in test [4] (strain CR-AB 18-183) and in test [4] (strain CR-AB 18-560) was over 128 µg/mL each time.
